The target in the assay is P2Y purinoceptor 1 (Homo sapiens, UniProt P47900). Briefly: Scintillation Proximity Assay (SPA): A SPA membrane binding assay was used to identify inhibitors of [33P] […] Binding reactions were performed in 384-well OptiPlates (PerkinElmer Life Sciences, Cat #6007299) in a volume of 50 μL containing 15 fmol of P2Y1 receptor (1.7 μg of total protein), 0.3 nM [33P] […] Reactions were allowed to proceed to completion at room temperature for 1 hour followed by centrifugation of the plate for 5 min. About 40 μL of the aqueous solution was aspirated. Plates were sealed and the [33P]. In general terms: In a scintillation proximity assay essentially only radioactivity close to the scintillant gives light.

pKi: −log10 of the molar value.

P2Y purinoceptor 1, sequence (P47900 whole entry): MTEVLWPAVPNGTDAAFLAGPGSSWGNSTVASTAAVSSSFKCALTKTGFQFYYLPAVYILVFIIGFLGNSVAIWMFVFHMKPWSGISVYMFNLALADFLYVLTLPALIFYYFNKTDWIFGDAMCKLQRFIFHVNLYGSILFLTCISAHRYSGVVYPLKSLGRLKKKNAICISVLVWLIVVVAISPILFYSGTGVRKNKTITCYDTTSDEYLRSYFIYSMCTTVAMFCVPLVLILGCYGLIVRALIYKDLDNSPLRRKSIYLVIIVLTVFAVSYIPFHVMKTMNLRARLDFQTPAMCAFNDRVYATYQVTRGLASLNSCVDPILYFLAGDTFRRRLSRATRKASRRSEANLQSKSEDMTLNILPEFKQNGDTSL

Usually pKi stands for the Ki on a negative log10 scale, so that one unit is a factor of ten. Higher therefore signals a small Ki. For `CC1(C)CN(c2ccccc2NC(=O)Nc2ccc(OC(F)(F)F)cc2)c2c(O)cc(F)c(-c3ccc(Cl)s3)c21`, the pKi was 8.02.

Consider `CC1(C)CN(c2ccccc2NC(=O)Nc2ccc(OC(F)(F)F)cc2)c2c(O)c(F)cc(-c3nc4cc(Cl)ccc4s3)c21`, for which the pKi was 7.28.

With `CC1(C)CN(c2ccccc2NC(=O)Nc2ccc(OC(F)(F)F)cc2)c2c(O)ccc(-c3nc4ccc(Cl)cc4s3)c21`, the pKi was 7.89.

Compound `CC1(C)CN(c2ccccc2NC(=O)Nc2csc(Cl)n2)c2c(O)cc(F)c(-c3nc4cc(Cl)ccc4s3)c21` gave a pKi of 7.89.

On to `CC1(C)CN(c2ccccc2NC(=O)Nc2nc3ccc(Cl)nc3s2)c2c(O)cc(F)c(-c3nc4ccc(F)cc4s3)c21`, for which the negative logarithm of the Ki (pKi) was 7.80.

For `CC1(C)CN(c2ccccc2NC(=O)Nc2nc3ccc(Cl)cc3s2)c2c(O)cc(F)c(-c3nc4cc(Cl)ccc4s3)c21`, the pKi is 7.01. Compared with the last compound, the pKi is 0.79 log units lower.

`CC1(C)CN(c2ccccc2NC(=O)Nc2nc3ccc(F)cc3s2)c2c(O)cc(F)c(-c3nc4cc(Cl)ccc4s3)c21` showed a pKi of 7.32.

`CC1(C)CN(c2ccccc2NC(=O)Nc2nc3ccc(Cl)nc3s2)c2c(O)cc(F)c(-c3nc4cc(Cl)ccc4s3)c21` had a pKi of 7.41.

`COc1cncc(-c2ccc(O)c3c2C(C)(C)CN3c2ccccc2NC(=O)Nc2ccc(OC(F)(F)F)cc2)c1` showed a pKi of 8.00. This pKi lies 0.59 log units higher than the previous one.

`CC1(C)CN(c2ccccc2NC(=O)Nc2nc3ccc(Cl)cc3s2)c2c(O)ccc(-c3nc4cc(F)ccc4s3)c21`: the pKi was 7.77. This pKi lies 0.23 log units lower than the previous one.

The compound `CC1(C)CN(c2ccccc2NC(=O)Nc2nc3ccc(Cl)nc3s2)c2c(O)cc(F)c(-c3ccc(Cl)s3)c21` had a pKi of 8.09.

With `CC1(C)CN(c2ccccc2NC(=O)Nc2ccc(OC(F)(F)F)cc2)c2c(O)ccc(-c3ccc(F)nc3)c21`, the pKi was 7.89. This pKi is 0.20 log units lower than that of the compound before.

`CC1(C)CN(c2ccccc2NC(=O)Nc2nc3ccc(F)cc3s2)c2c(O)ccc(-c3nc4ccc(Cl)cc4s3)c21` gave a pKi of 7.11.

In turn, `CC1(C)CN(c2ccccc2NC(=O)Nc2nc3ccc(Cl)cc3s2)c2c(O)cc(F)c(-c3nc4ccc(F)cc4s3)c21` had a pKi of 7.05. This pKi and that of the compound before are within 0.2 log units of each other.

Source of the values: ChEMBL document CHEMBL5725427, “7-hydroxy-indolinyl antagonists of P2Y1 receptor” (2017).
